Tests used:
[1] = Preliminary in-vivo experiment, constituents in urine (GC); details: male, Sprague-Dawley, rat, 7.5 % lavender essential oil in almond oil, collected urine sample, 84 h after the simulated massage
Excerpt: Male Sprague-Dawley rats, weighing 300-350 g, were used in the studies (Harlan, Rehovot, Israel). The experimental protocols were approved by the Hebrew University of Jerusalem Committee on the Use and Care of Animals. Rats were maintained under specified-pathogen-free (SPF) conditions and were allowed to acclimate to the environment for at least 7 days before their use in the study. Rats were anesthetized and the fur on their stomach shaved prior to exposure. […] Each rat was housed in an individual cage in order to prevent oral contamination of the essential oil by one rat eating another's patch. Blood samples (0.5 ml) were taken at 0, 12, 24, 36, 48 and 60 h from a nick at the tip of tail to determine contents of essential-oil components. Rats were restrained and the tail was gently massaged to facilitate blood collection. […] Urine samples were similarly analyzed by gas chromatography (GC).
Similar values of camphor (FIG. 17) were detected following application of a lavender oil patch on the back and abdomen. […] In the blood of rats with an abdomen-adhered patch, more linalyl acetate was detected than in the blood of rats with a back patch. […] In a collected urine sample, 0.01265 mg L^−1 linalool and 0.00903 mg L^−1 linalyl acetate were detected. […] In addition, no traces of camphor were detected in the urine (note that the urine analysis was performed 84 h after the simulated massage).

[2] = In-vivo experiment with WAX column, constituents in blood; parameters: species or system rat; details: 7.5% lavender oil patch on abdomen; split injection
Excerpt: Male Sprague-Dawley rats, weighing 300-350 g, were used in the studies (Harlan, Rehovot, Israel). The experimental protocols were approved by the Hebrew University of Jerusalem Committee on the Use and Care of Animals. Rats were maintained under specified-pathogen-free (SPF) conditions and were allowed to acclimate to the environment for at least 7 days before their use in the study. Rats were anesthetized and the fur on their stomach shaved prior to exposure. Gum karaya patches with and without lavender essential oil were applied to the rat's stomach skin. Each rat was housed in an individual cage in order to prevent oral contamination of the essential oil by one rat eating another's patch. Blood samples (0.5 ml) were taken at 0, 12, 24, 36, 48 and 60 h from a nick at the tip of tail to determine contents of essential-oil components. Rats were restrained and the tail was gently massaged to facilitate blood collection. Blood samples were collected in vials containing 0.1 ml heparin (100 kU, Sigma). A 10-μl volume of aqueous linalyl isovalerate stock solution was added as an internal standard to each blood sample and samples were stored at −80° C. […] Urine samples were similarly analyzed by gas chromatography (GC). […]
Patches that included lavender essential oil were adhered to the abdomen skin for 60 h. […] Between 12 and 36 h, a similar, non-significant change in levels was detected. […]

[3] = In-vivo experiment with HP-5 column, constituents in blood; parameters: species or system rat
Excerpt: Male Sprague-Dawley rats, weighing 300-350 g, were used in the studies (Harlan, Rehovot, Israel). The experimental protocols were approved by the Hebrew University of Jerusalem Committee on the Use and Care of Animals. Rats were maintained under specified-pathogen-free (SPF) conditions and were allowed to acclimate to the environment for at least 7 days before their use in the study. Rats were anesthetized and the fur on their stomach shaved prior to exposure. Gum karaya patches with and without lavender essential oil were applied to the rat's stomach skin. Each rat was housed in an individual cage in order to prevent oral contamination of the essential oil by one rat eating another's patch. Blood samples (0.5 ml) were taken at 0, 12, 24, 36, 48 and 60 h from a nick at the tip of tail to determine contents of essential-oil components. Rats were restrained and the tail was gently massaged to facilitate blood collection. Blood samples were collected in vials containing 0.1 ml heparin (100 kU, Sigma). A 10-μl volume of aqueous linalyl isovalerate stock solution was added as an internal standard to each blood sample and samples were stored at −80° C. After 60 h, patches were removed and the application site was wiped with 70% alcohol. Animals were sacrificed and the patch of stomach skin to which the essential oil patch had been applied was removed and minced into small pieces. The skin pieces were placed in 1 ml of ethanol containing linalyl isovalerate as the internal standard and sonicated for 30 min after heating to 50° C. A 10-μl aliquot was then injected straight into the gas chromatograph. A urine sample (0.5 ml) was obtained from the bladder immediately after sacrifice. Urine samples were similarly analyzed by gas chromatography (GC).
Blood (0.5 ml) or phosphate buffer (0.5 ml) was collected at t=0, 12, 24, 36, 48 and 60 h. Blood samples were placed in Eppendorf heparin-coated glass vials (Agilent) by heparin-washed syringe, which were sealed with septa and screw caps. Each vial contained 100 μl of heparin and blood samples were frozen at −80° C. for storage. Prior to analysis, the blood or phosphate buffer was thawed to room temperature, a 10-μl volume of internal standards (6.5 mg linalyl isovalerate and 6.5 mg geranyl formate in 25 ml acetonitrile) was added to the vial and then the mixture was vortexed. The vials were tightly capped using a clear cap with septum. The septa were pre-punctured immediately before analysis using a needle to facilitate the insertion of the fiber sheath. The fiber sheath was inserted through the septum, and positioned to expose the fiber in the center of the headspace. The vial was placed on a heating block to maintain temperature at a constant 50° C. and the solid-phase microextraction (SPME) assembly was clamped securely. Absorption time was 30 min. No stirring was required. After absorption, the SPME fiber sheath was immediately transferred to the GC injector for desorption for 5 min and GC analysis.
GC was performed on an Agilent 7890A gas chromatograph equipped with a split/splitless capillary injector, flame ionization detection (FID) system and GC Chem Station (Version B.03.01; Agilent Technologies 2007). Chromatography was carried out on a WAX or HP-5 column (30 m×0.32 mm×0.25 μm). The GC operating conditions were: splitless or split 1:40 injector 240° C., oven 50° C. for 1 min and then 10° C. min^−1 to 160° C., then 25° C. min^−1 to 240° C. and held for 6 min; the carrier gas was hydrogen.
In this experiment, patches containing lavender essential oil were adhered to the abdomen area. Patches without essential oil served as blanks. […] Detection under splitless conditions facilitated the detection of linalyl acetate, linalool, camphor, borneol and α-terpineol, the latter two being additional constituents detected only under these conditions. High concentrations of linalool, borneol and camphor were detected, in comparison to low levels of terpeneol and linalyl acetate. […]

[4] = male, Sprague-Dawley, rat, in vivo

Row | SMILES | concentration at 84 h ([1]; topical) [ng/mL] | Level in blood after 60 h [2] | Concentration observed in the blood [3, 4] [ng/mL] | Highest value in blood [3, 4] [mg/L] | concentration at 60 h [3, 4] [ng/mL] | concentration at 84 h ([1]; in vivo) [ng/mL] | Concentration observed in the blood ([3]; quoted for comparison with the skin extract) [ng/mL]
1 | C=CC(C)(O)CCC=C(C)C (stereo not shown) [Linalool] | 12.7 | no traces | 99 | 0.099 | 53 |  | 
2 | C=CC(C)(CCC=C(C)C)OC(C)=O (stereo not shown) [Linalyl acetate] |  |  |  |  |  | 9.03 | 9
